Organism: Rattus norvegicus
Assay: DrugMatrix - Regimen: Daily Repeat
Type: toxicity, organism-based, Sprague-Dawley
Parameters: regimen Daily Repeat, gender Male, age 6-8 weeks
Details: in vivo, iv, vehicle 100 % SALINE; for ABSOLUTE BASOPHIL / ABSOLUTE EOSINOPHIL / ABSOLUTE LYMPHOCYTE / ABSOLUTE MONOCYTE / ABSOLUTE SEGMENTED NEUTROPHIL / BASOPHIL / EOSINOPHIL / ERYTHROCYTE COUNT / HEMATOCRIT / HEMOGLOBIN / LEUKOCYTE COUNT / LYMPHOCYTE / MEAN CORPUSCULAR HEMOGLOBIN / MEAN CORPUSCULAR HEMOGLOBIN CONCENTRATION / MEAN CORPUSCULAR VOLUME / MONOCYTE / NEUTROPHIL / NUCLEATED RED BLOOD CELLS / PLATELET COUNT: tissue Blood; for ALANINE AMINOTRANSFERASE / ALBUMIN / ALKALINE PHOSPHATASE / ASPARTATE AMINOTRANSFERASE / BLOOD UREA NITROGEN / CARBON DIOXIDE / CHLORIDE / CHOLESTEROL / CREATINE PHOSPHOKINASE / CREATININE / GLUCOSE / LACTATE DEHYDROGENASE / LIPASE / PHOSPHORUS / POTASSIUM / SODIUM / TOTAL BILIRUBIN / TOTAL PROTEIN / URIC ACID: tissue Plasma
[1] = 0 mg/kg, 72 h, dose level Control, time 3 day
[2] = 0 mg/kg, 120 h, dose level Control, time 5 day
[3] = 0.05 mg/kg, 72 h, dose level Low, time 3 day
[4] = 0.05 mg/kg, 120 h, dose level Low, time 5 day

CC[C@]1(O)C[C@H]2CN(CCc3c([nH]c4ccccc34)[C@@](C(=O)OC)(c3cc4c(cc3OC)N(C=O)[C@H]3[C@@](O)(C(=O)OC)[C@H](OC(C)=O)[C@]5(CC)C=CCN6CC[C@]43[C@@H]65)C2)C1 [VINCRISTINE]
ABSOLUTE BASOPHIL [1]: 0 CELLS/uL
ABSOLUTE EOSINOPHIL [1]: 0 CELLS/uL
ABSOLUTE LYMPHOCYTE [1]: 7637.67 CELLS/uL
ABSOLUTE MONOCYTE [1]: 67.83 CELLS/uL
ABSOLUTE SEGMENTED NEUTROPHIL [1]: 661.17 CELLS/uL
BASOPHIL [1]: 0%
EOSINOPHIL [1]: 0%
ERYTHROCYTE COUNT [1]: 5.38 x10E6/uL
HEMATOCRIT [1]: 33.67%
HEMOGLOBIN [1]: 12.88 G/DL
LEUKOCYTE COUNT [1]: 8.37 x10E3/uL
LYMPHOCYTE [1]: 91.17%
MEAN CORPUSCULAR HEMOGLOBIN [1]: 23.95 pg
MEAN CORPUSCULAR HEMOGLOBIN CONCENTRATION [1]: 38.23 G/DL
MEAN CORPUSCULAR VOLUME [1]: 62.6 fL
MONOCYTE [1]: 0.83%
NEUTROPHIL [1]: 8%
NUCLEATED RED BLOOD CELLS [1]: 0.17 /100WBC
PLATELET COUNT [1]: 865 x10E3/uL
ALANINE AMINOTRANSFERASE [1]: 51.67 u/L
ALBUMIN [1]: 3.97 G/DL
ALKALINE PHOSPHATASE [1]: 351.17 u/L
ASPARTATE AMINOTRANSFERASE [1]: 82.33 u/L
BLOOD UREA NITROGEN [1]: 15.17 mg/dL
CARBON DIOXIDE [1]: 34.5 mmol/L
CHLORIDE [1]: 100 MEQ/L
CHOLESTEROL [1]: 80.33 mg/dL
CREATINE PHOSPHOKINASE [1]: 316.5 u/L
CREATININE [1]: 0.17 mg/dL
GLUCOSE [1]: 149.17 mg/dL
LACTATE DEHYDROGENASE [1]: 105.67 u/L
LIPASE [1]: 9.5 u/L
PHOSPHORUS [1]: 10.87 mg/dL
POTASSIUM [1]: 5.47 MEQ/L
SODIUM [1]: 144.2 MEQ/L
TOTAL BILIRUBIN [1]: 0.2 mg/dL
TOTAL PROTEIN [1]: 5.83 G/DL
URIC ACID [1]: 0.83 mg/dL
ABSOLUTE BASOPHIL [2]: 0 CELLS/uL
ABSOLUTE EOSINOPHIL [2]: 0 CELLS/uL
ABSOLUTE LYMPHOCYTE [2]: 6333.5 CELLS/uL
ABSOLUTE MONOCYTE [2]: 38.83 CELLS/uL
ABSOLUTE SEGMENTED NEUTROPHIL [2]: 661 CELLS/uL
BASOPHIL [2]: 0%
EOSINOPHIL [2]: 0%
ERYTHROCYTE COUNT [2]: 5.44 x10E6/uL
HEMATOCRIT [2]: 34.17%
HEMOGLOBIN [2]: 13.22 G/DL
LEUKOCYTE COUNT [2]: 7.03 x10E3/uL
LYMPHOCYTE [2]: 90.17%
MEAN CORPUSCULAR HEMOGLOBIN [2]: 24.38 pg
MEAN CORPUSCULAR HEMOGLOBIN CONCENTRATION [2]: 38.7 G/DL
MEAN CORPUSCULAR VOLUME [2]: 62.95 fL
MONOCYTE [2]: 0.5%
NEUTROPHIL [2]: 9.33%
NUCLEATED RED BLOOD CELLS [2]: 0 /100WBC
PLATELET COUNT [2]: 924.33 x10E3/uL
ALANINE AMINOTRANSFERASE [2]: 52.5 u/L
ALBUMIN [2]: 3.97 G/DL
ALKALINE PHOSPHATASE [2]: 364.83 u/L
ASPARTATE AMINOTRANSFERASE [2]: 82.5 u/L
BLOOD UREA NITROGEN [2]: 17 mg/dL
CARBON DIOXIDE [2]: 32.33 mmol/L
CHLORIDE [2]: 99.6 MEQ/L
CHOLESTEROL [2]: 75.83 mg/dL
CREATINE PHOSPHOKINASE [2]: 419 u/L
CREATININE [2]: 0.21 mg/dL
GLUCOSE [2]: 155 mg/dL
LACTATE DEHYDROGENASE [2]: 111.5 u/L
LIPASE [2]: 11.33 u/L
PHOSPHORUS [2]: 10.32 mg/dL
POTASSIUM [2]: 5.37 MEQ/L
SODIUM [2]: 144.64 MEQ/L
TOTAL BILIRUBIN [2]: 0.18 mg/dL
TOTAL PROTEIN [2]: 5.98 G/DL
URIC ACID [2]: 0.62 mg/dL
ABSOLUTE BASOPHIL [3]: 0 CELLS/uL
ABSOLUTE EOSINOPHIL [3]: 50 CELLS/uL
ABSOLUTE LYMPHOCYTE [3]: 6489 CELLS/uL
ABSOLUTE MONOCYTE [3]: 75.67 CELLS/uL
ABSOLUTE SEGMENTED NEUTROPHIL [3]: 285.33 CELLS/uL
BASOPHIL [3]: 0%
EOSINOPHIL [3]: 0.67%
ERYTHROCYTE COUNT [3]: 5.18 x10E6/uL
HEMATOCRIT [3]: 30.77%
HEMOGLOBIN [3]: 12.07 G/DL
LEUKOCYTE COUNT [3]: 6.9 x10E3/uL
LYMPHOCYTE [3]: 94.33%
MEAN CORPUSCULAR HEMOGLOBIN [3]: 23.3 pg
MEAN CORPUSCULAR HEMOGLOBIN CONCENTRATION [3]: 39.2 G/DL
MEAN CORPUSCULAR VOLUME [3]: 59.47 fL
MONOCYTE [3]: 1%
NEUTROPHIL [3]: 4%
NUCLEATED RED BLOOD CELLS [3]: 0.33 /100WBC
PLATELET COUNT [3]: 1561 x10E3/uL
ALANINE AMINOTRANSFERASE [3]: 52.67 u/L
ALBUMIN [3]: 4.03 G/DL
ALKALINE PHOSPHATASE [3]: 301.33 u/L
ASPARTATE AMINOTRANSFERASE [3]: 100 u/L
BLOOD UREA NITROGEN [3]: 13.67 mg/dL
CARBON DIOXIDE [3]: 35.67 mmol/L
CHLORIDE [3]: 98 MEQ/L
CHOLESTEROL [3]: 80.67 mg/dL
CREATINE PHOSPHOKINASE [3]: 355.67 u/L
CREATININE [3]: 0.15 mg/dL
GLUCOSE [3]: 138.33 mg/dL
LACTATE DEHYDROGENASE [3]: 108.33 u/L
LIPASE [3]: 9 u/L
PHOSPHORUS [3]: 10.47 mg/dL
POTASSIUM [3]: 5.91 MEQ/L
SODIUM [3]: 142.8 MEQ/L
TOTAL BILIRUBIN [3]: 0.17 mg/dL
TOTAL PROTEIN [3]: 6 G/DL
URIC ACID [3]: 0.5 mg/dL
ABSOLUTE BASOPHIL [4]: 0 CELLS/uL
ABSOLUTE EOSINOPHIL [4]: 15.67 CELLS/uL
ABSOLUTE LYMPHOCYTE [4]: 5856.67 CELLS/uL
ABSOLUTE MONOCYTE [4]: 77.33 CELLS/uL
ABSOLUTE SEGMENTED NEUTROPHIL [4]: 217 CELLS/uL
BASOPHIL [4]: 0%
EOSINOPHIL [4]: 0.33%
ERYTHROCYTE COUNT [4]: 4.27 x10E6/uL
HEMATOCRIT [4]: 27.3%
HEMOGLOBIN [4]: 10.7 G/DL
LEUKOCYTE COUNT [4]: 6.17 x10E3/uL
LYMPHOCYTE [4]: 94%
MEAN CORPUSCULAR HEMOGLOBIN [4]: 25.1 pg
MEAN CORPUSCULAR HEMOGLOBIN CONCENTRATION [4]: 39.17 G/DL
MEAN CORPUSCULAR VOLUME [4]: 64.03 fL
MONOCYTE [4]: 1.33%
NEUTROPHIL [4]: 4.33%
NUCLEATED RED BLOOD CELLS [4]: 0 /100WBC
PLATELET COUNT [4]: 1370.67 x10E3/uL
ALANINE AMINOTRANSFERASE [4]: 42 u/L
ALBUMIN [4]: 3.8 G/DL
ALKALINE PHOSPHATASE [4]: 313 u/L
ASPARTATE AMINOTRANSFERASE [4]: 132.33 u/L
BLOOD UREA NITROGEN [4]: 18.67 mg/dL
CARBON DIOXIDE [4]: 29.67 mmol/L
CHLORIDE [4]: 99.67 MEQ/L
CHOLESTEROL [4]: 65 mg/dL
CREATINE PHOSPHOKINASE [4]: 254 u/L
CREATININE [4]: 0.18 mg/dL
GLUCOSE [4]: 187.33 mg/dL
LACTATE DEHYDROGENASE [4]: 136.67 u/L
LIPASE [4]: 9 u/L
PHOSPHORUS [4]: 10.8 mg/dL
POTASSIUM [4]: 5.21 MEQ/L
SODIUM [4]: 143.2 MEQ/L
TOTAL BILIRUBIN [4]: 0.2 mg/dL
TOTAL PROTEIN [4]: 5.4 G/DL
URIC ACID [4]: 0.73 mg/dL
